Results as given in PMC12152147, “DDB1 engagement defines the selectivity of S656 analogs for cyclin K degradation over CDK inhibition” (EMBO Reports, 2025).
Where “and” joins values, the source holds several entries; their conditions need not be identical. Equal entries are not always repeated. Where two headings read alike, the source gives them in different places.

Legend:
[1] = system: primary AML specimens; experiment: Dose-response assays in primary AML specimens (6 days, CellTiterGlo); assay type: cell-based, human; conditions: Homo sapiens, 144 h
How it was run: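 Primary AML cells in IMDM/15% BIT with SCF, FLT3L, IL3, G-CSF, SR1 and UM729 were exposed to 8-point 1:4 dilutions (10 μM to 0.5 nM) for 6 days. Viability came from CellTiterGlo luminescence, with % inhibition versus DMSO (0.1%) fitted by nonlinear regression.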

[2] = system: OCI-AML5 cells; experiment: Dose-response proliferative assay in OCI-AML5 (4 days, CellTiterGlo); assay type: cell-based, H. sapiens
How it was run: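 Viability assessed after 4 days of compound exposure at 37 °C, 5% CO2. Compounds tested as 8 dilutions (1:4, 10 μM to 0.5 nM) on 300 OCI-AML5 cells/well grown in αMEM with 10% heat-inactivated FBS and 10 ng/mL GM-CSF.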

[3] = system: cyclin KeGFP; experiment: Cyclin KeGFP reporter system (eGFP/mCherry MFI by flow cytometry);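 for % degradation cyclin K-eGFP: 10 μM compound for 3 h relative to DMSO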; assay type: cell-based, H. sapiens
How it was run: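 Degradation read as eGFP-to-mCherry MFI ratio relative to DMSO controls, from flow cytometry of the selected G7 clone of OCI-AML5 cells transduced with the cyclin KeGFP reporter.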

[4] = target: T1, CDK12/Cyclin K (Homo sapiens, UniProt Q9NYV4); experiment: CDK12/CyclinK in vitro kinase assay (BPS kit, Kinase Glo MAX); assay type: biochemical; conditions: for in vitro inhibition of CDK12/Cyclin K activity: in % (unit assumed)
T1 construct: purchased BPS Bioscience 78298
T1 sequence (Q9NYV4 whole entry): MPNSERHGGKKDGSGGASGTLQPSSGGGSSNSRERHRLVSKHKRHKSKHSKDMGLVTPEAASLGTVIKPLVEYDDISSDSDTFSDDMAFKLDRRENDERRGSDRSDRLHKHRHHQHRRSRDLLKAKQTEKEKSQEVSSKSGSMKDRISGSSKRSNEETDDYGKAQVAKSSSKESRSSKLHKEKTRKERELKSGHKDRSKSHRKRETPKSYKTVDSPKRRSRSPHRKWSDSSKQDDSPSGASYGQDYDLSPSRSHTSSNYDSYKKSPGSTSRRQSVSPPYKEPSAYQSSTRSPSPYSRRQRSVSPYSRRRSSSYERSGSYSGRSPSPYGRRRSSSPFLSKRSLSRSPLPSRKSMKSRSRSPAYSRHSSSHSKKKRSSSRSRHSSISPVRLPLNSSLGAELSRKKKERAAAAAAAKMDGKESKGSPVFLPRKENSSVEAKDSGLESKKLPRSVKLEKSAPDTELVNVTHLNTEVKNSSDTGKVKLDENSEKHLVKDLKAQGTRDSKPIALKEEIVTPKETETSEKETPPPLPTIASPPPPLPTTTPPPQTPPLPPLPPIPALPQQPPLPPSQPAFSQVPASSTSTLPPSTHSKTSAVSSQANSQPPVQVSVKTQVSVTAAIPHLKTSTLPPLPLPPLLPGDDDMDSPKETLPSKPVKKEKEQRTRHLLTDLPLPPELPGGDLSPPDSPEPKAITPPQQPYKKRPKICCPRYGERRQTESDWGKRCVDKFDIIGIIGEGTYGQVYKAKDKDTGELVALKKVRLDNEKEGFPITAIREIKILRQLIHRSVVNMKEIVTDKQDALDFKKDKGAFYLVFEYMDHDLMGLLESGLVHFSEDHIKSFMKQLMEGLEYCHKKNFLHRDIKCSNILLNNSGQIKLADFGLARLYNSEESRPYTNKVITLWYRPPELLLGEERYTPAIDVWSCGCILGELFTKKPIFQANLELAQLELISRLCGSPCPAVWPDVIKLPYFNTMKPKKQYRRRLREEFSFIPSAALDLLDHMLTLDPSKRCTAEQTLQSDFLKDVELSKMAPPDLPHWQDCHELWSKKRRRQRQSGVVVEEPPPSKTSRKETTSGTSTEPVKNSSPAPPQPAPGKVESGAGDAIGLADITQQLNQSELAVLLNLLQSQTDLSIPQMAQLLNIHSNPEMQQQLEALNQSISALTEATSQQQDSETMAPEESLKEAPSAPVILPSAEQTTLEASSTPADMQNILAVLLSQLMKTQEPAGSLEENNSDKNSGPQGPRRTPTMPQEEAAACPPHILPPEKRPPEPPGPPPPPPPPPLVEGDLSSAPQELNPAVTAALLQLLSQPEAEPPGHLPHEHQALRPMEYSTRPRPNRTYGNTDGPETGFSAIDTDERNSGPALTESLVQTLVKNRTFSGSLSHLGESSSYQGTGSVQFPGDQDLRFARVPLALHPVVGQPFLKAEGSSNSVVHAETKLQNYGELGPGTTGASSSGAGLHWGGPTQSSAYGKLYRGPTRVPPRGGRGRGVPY
T1 sequence (O75909 whole entry partner): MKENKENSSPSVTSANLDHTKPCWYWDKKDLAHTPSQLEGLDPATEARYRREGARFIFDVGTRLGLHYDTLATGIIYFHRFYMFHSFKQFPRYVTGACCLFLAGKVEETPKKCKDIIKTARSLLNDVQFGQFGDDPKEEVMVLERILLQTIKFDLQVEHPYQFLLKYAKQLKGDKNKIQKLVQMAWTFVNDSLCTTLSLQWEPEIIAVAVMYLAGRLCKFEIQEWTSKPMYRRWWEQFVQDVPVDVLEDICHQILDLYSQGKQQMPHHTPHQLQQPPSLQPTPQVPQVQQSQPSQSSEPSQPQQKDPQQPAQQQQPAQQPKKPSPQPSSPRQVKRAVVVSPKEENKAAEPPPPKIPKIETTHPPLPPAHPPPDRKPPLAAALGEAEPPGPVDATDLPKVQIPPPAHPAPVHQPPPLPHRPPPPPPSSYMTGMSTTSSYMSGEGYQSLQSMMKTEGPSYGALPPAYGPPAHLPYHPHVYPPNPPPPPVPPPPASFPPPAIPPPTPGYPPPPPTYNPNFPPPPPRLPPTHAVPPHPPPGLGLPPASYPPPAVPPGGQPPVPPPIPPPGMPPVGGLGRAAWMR
Experimental: (§1) Kinase activity was assessed using the kinase assay kits from BPS Bioscience for CDK1, CDK9 and CDK12 with Kinase Glo MAX in duplicates. Compounds were tested at a single concentration of 1 μM for CDK1 and CDK9 activity, and in a dilution ranging from 0.64 nM to 50 μM for CDK12 activity. Chemiluminescence was read using the Neo Synergy BioTek plate reader.

[5] = target: T2, CDK1 (Homo sapiens, UniProt P06493); experiment: CDK1 in vitro kinase activity, single concentration 1 μM; assay type: biochemical
T2 construct: purchased BPS Bioscience 79597
T2 sequence (P06493 whole entry): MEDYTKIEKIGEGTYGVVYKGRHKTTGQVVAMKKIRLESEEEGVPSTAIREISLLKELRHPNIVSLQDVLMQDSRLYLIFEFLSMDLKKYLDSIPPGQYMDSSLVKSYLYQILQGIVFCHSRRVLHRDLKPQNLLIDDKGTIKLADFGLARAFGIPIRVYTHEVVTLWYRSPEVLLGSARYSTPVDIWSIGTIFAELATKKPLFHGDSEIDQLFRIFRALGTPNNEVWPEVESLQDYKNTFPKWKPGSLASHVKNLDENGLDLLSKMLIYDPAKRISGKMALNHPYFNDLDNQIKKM
T2 sequence (P14635 whole entry partner): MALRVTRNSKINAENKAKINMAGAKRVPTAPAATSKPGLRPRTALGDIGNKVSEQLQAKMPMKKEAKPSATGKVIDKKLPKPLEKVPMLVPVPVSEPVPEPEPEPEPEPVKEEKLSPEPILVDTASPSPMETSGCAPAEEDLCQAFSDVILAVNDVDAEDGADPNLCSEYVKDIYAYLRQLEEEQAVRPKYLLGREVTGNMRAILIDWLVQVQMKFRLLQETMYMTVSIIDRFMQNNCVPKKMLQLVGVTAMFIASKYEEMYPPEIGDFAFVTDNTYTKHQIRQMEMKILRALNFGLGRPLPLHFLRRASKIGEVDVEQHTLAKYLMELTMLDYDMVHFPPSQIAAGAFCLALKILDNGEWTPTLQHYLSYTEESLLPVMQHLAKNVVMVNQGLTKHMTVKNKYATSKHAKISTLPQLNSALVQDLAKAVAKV
Experimental: as §1

[6] = target: T3, CDK9/CyclinT (Homo sapiens, UniProt P50750); experiment: CDK9/CyclinT in vitro kinase activity, single concentration 1 μM; assay type: biochemical
T3 construct: purchased BPS Bioscience 79628
T3 sequence (P50750 whole entry): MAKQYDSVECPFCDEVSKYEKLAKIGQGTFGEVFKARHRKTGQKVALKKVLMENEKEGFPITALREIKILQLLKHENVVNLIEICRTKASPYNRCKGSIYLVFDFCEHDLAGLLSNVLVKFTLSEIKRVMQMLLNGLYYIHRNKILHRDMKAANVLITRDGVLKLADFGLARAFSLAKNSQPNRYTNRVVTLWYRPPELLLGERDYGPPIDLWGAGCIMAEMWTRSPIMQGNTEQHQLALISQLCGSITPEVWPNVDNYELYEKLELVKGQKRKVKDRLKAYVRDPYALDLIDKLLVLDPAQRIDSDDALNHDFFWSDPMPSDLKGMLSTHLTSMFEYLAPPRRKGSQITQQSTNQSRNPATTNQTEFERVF
T3 sequence (O60563 whole entry partner): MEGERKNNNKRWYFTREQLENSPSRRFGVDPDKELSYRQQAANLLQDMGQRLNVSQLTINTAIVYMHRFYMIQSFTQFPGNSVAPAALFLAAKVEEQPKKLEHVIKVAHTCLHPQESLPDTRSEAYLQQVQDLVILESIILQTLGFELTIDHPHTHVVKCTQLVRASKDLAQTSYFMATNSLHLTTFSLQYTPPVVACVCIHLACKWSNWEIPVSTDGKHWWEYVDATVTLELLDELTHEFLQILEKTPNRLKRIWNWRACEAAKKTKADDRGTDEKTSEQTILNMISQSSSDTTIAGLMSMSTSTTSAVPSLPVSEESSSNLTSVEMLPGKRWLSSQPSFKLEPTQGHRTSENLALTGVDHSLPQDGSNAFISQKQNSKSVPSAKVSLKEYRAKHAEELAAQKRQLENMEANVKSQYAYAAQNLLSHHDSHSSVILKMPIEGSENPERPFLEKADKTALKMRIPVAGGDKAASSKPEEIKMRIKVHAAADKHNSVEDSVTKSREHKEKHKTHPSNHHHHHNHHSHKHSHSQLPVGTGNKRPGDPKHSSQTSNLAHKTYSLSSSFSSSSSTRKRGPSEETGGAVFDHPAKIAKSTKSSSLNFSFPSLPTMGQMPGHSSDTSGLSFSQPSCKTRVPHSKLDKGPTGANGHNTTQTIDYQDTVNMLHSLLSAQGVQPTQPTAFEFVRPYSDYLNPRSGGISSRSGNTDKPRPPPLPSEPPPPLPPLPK
Experimental: as §1

[7] = system: OCI-AML5 cells expressing shRNAs targeting CDK1, 2, 4, 7, 9, cyclin K; experiment: Dose response in OCI-AML5 expressing shRNAs targeting CDK1, 2, 4, 7, 9, cyclin K or control; assay type: cell-based, H. sapiens
[8] = system: OCI-AML5 cells expressing shRNA targeting CUL4A or CUL4B; experiment: Dose response in OCI-AML5 expressing shRNAs targeting CUL4A, CUL4B or control; assay type: cell-based, H. sapiens

CN(C)c1ccc(CC(=O)Nc2ncc(SCc3cccnc3)s2)cc1 [S656]
IC50 ([1]; primary AML specimen 03H109, 6 days, read-out: IC50): 761 nM | IC50 ([1]; primary AML specimen 04H055, 6 days, read-out: IC50): 1040 nM | IC50 ([1]; primary AML specimen 04H096, 6 days, read-out: IC50): 846 nM | IC50 ([1]; primary AML specimen 04H138, 6 days, read-out: IC50): 1990 nM | IC50 ([1]; primary AML specimen 05H113, 6 days, read-out: IC50): 897 nM | IC50 ([1]; primary AML specimen 05H149, 6 days, read-out: IC50): 1380 nM | IC50 ([1]; primary AML specimen 05H193, 6 days, read-out: IC50): 999 nM | IC50 ([1]; primary AML specimen 06H088, 6 days, read-out: IC50): 1260 nM | IC50 ([1]; primary AML specimen 06H117, 6 days, read-out: IC50): 983 nM | IC50 ([1]; primary AML specimen 06H151, 6 days, read-out: IC50): 683 nM | IC50 ([1]; primary AML specimen 07H003, 6 days, read-out: IC50): 2190 nM | IC50 ([1]; primary AML specimen 07H131, 6 days, read-out: IC50): 2680 nM | IC50 ([1]; primary AML specimen 07H144, 6 days, read-out: IC50): 999 nM | IC50 ([1]; primary AML specimen 07H155, 6 days, read-out: IC50): 2440 nM | IC50 ([1]; primary AML specimen 08H018, 6 days, read-out: IC50): 2210 nM | IC50 ([1]; primary AML specimen 08H021, 6 days, read-out: IC50): 1010 nM | IC50 ([1]; primary AML specimen 08H056, 6 days, read-out: IC50): 2130 nM | IC50 ([1]; primary AML specimen 08H063, 6 days, read-out: IC50): 2380 nM | IC50 ([1]; primary AML specimen 08H085, 6 days, read-out: IC50): 1010 nM | IC50 ([1]; primary AML specimen 08H108, 6 days, read-out: IC50): 826 nM | IC50 ([1]; primary AML specimen 08H118, 6 days, read-out: IC50): 887 nM | IC50 ([1]; primary AML specimen 09H016, 6 days, read-out: IC50): 974 nM | IC50 ([1]; primary AML specimen 09H070, 6 days, read-out: IC50): 2240 nM | IC50 ([1]; primary AML specimen 10H014, 6 days, read-out: IC50): 852 nM | IC50 ([1]; primary AML specimen 10H046, 6 days, read-out: IC50): 972 nM | IC50 ([1]; primary AML specimen 10H107, 6 days, read-out: IC50): 1560 nM | IC50 ([1]; primary AML specimen 10H127, 6 days, read-out: IC50): 1440 nM | IC50 ([1]; primary AML specimen 10H161, 6 days, read-out: IC50): 1170 nM | IC50 ([1]; primary AML specimen 10H174, 6 days, read-out: IC50): 887 nM | IC50 ([1]; primary AML specimen 11H008, 6 days, read-out: IC50): 1450 nM | IC50 ([1]; primary AML specimen 11H019, 6 days, read-out: IC50): 1090 nM | IC50 ([1]; primary AML specimen 11H170, 6 days, read-out: IC50): 2330 nM | IC50 ([1]; primary AML specimen 11H217, 6 days, read-out: IC50): 1240 nM | IC50 ([1]; primary AML specimen 11H232, 6 days, read-out: IC50): 1130 nM | IC50 ([1]; primary AML specimen 12H033, 6 days, read-out: IC50): 2380 nM | IC50 ([1]; primary AML specimen 12H055, 6 days, read-out: IC50): 1390 nM | IC50 ([1]; primary AML specimen 12H148, 6 days, read-out: IC50): 1480 nM | IC50 ([1]; primary AML specimen 13H053, 6 days, read-out: IC50): 2190 nM | IC50 ([1]; primary AML specimen 15H045, 6 days, read-out: IC50): 680 nM | IC50 ([1]; primary AML specimen 17H065, 6 days, read-out: IC50): 1550 nM | IC50 ([1]; read-out: median IC50 in a panel of 40 primary AMLs, 6 days): 1210 nM | IC50 ([2]; Homo sapiens, OCI-AML-5, 96 h, 4 days incubation, read-out: IC50 OCI-AML5): 743 nM | IC50 ([2]; Homo sapiens, OCI-AML-5, 96 h, OCI-AML5, regular media, 4 days, read-out: S656 IC50, Media): 949 nM | IC50 ([2]; OCI-AML5, regular media, 4 days, read-out: S656 IC50, Media): 675 nM and 712 nM | % cyclin KeGFP degradation ([3]; 3 h, 10 μM, compared to DMSO, OCI-AML5 G7 clone): 75% | MFI of cyclin KeGFP over mCherry ([3]; OCI-AML5 G7 clone, 3 h, 10 μM, normalized to DMSO (=100)): 23.8 and 23.9 and 23.3 and 23.2 and 22.8 | % degradation cyclin K-eGFP ([3]; cyclin K-eGFP reporter): 75% | in vitro inhibition of CDK12/Cyclin K activity ([4]; Log10 (uM) 0.30103): 29.97 and 30.05 and 16.95 | in vitro inhibition of CDK12/Cyclin K activity ([4]; Log10 (uM) 1): 64.47 and 62.45 and 59.28 | in vitro inhibition of CDK12/Cyclin K activity ([4]; Log10 (uM) 1.69897): 82.67 and 75.84 and 109.95 | IC50 ([4]; read-out: IC50, in vitro inhibition of CDK12/Cyclin K activity): 6000 nM | in vitro inhibitory activity for CDK1 ([5]; 1 μM): displays in vitro inhibitory activity | inhibition at 1 µM ([5]; single concentration 1 μM): 70% | in vitro inhibitory activity for CDK9 ([6]; 1 μM): displays in vitro inhibitory activity | inhibition at 1 µM ([6]; single concentration 1 μM): 59% | IC50 ([7]; Homo sapiens, OCI-AML-5, 96 h, OCI-AML5, 4 days, read-out: IC50, sh CDK1): 499 nM | IC50 ([7]; Homo sapiens, OCI-AML-5, 96 h, OCI-AML5, 4 days, read-out: IC50, sh CDK2): 842 nM | IC50 ([7]; Homo sapiens, OCI-AML-5, 96 h, OCI-AML5, 4 days, read-out: IC50, sh CDK4): 577 nM | IC50 ([7]; Homo sapiens, OCI-AML-5, 96 h, OCI-AML5, 4 days, read-out: IC50, sh CDK7): 791 nM | IC50 ([7]; Homo sapiens, OCI-AML-5, 96 h, OCI-AML5, 4 days, read-out: IC50, sh CDK9): 548 nM | IC50 ([7]; Homo sapiens, OCI-AML-5, 96 h, OCI-AML5, 4 days, read-out: IC50, sh Cyclin K): 175 nM | IC50 ([7]; Homo sapiens, OCI-AML-5, 96 h, OCI-AML5, 4 days, read-out: IC50, sh ctrl): 756 nM | IC50 ([7]; Homo sapiens, OCI-AML-5, OCI-AML5 expressing shRNA CCNK (cyclin K), read-out: IC50 shRNA CCNK): 194 nM | IC50 ([7]; Homo sapiens, OCI-AML-5, OCI-AML5 expressing shRNA CDK1, read-out: IC50 shRNA CDK1): 478 nM | IC50 ([7]; Homo sapiens, OCI-AML-5, OCI-AML5 expressing shRNA CDK2, read-out: IC50 shRNA CDK2): 794 nM | IC50 ([7]; Homo sapiens, OCI-AML-5, OCI-AML5 expressing shRNA CDK4, read-out: IC50 shRNA CDK4): 690 nM | IC50 ([7]; Homo sapiens, OCI-AML-5, OCI-AML5 expressing shRNA CDK9, read-out: IC50 shRNA CDK9): 548 nM | IC50 ([7]; OCI-AML5, 4 days, read-out: IC50, sh CDK1): 480 nM | IC50 ([7]; OCI-AML5, 4 days, read-out: IC50, sh CDK2): 928 nM and 685 nM | IC50 ([7]; OCI-AML5, 4 days, read-out: IC50, sh CDK4): 744 nM and 662 nM | IC50 ([7]; OCI-AML5, 4 days, read-out: IC50, sh CDK7): 774 nM and 662 nM | IC50 ([7]; OCI-AML5, 4 days, read-out: IC50, sh CDK9): 589 nM and 628 nM | IC50 ([7]; OCI-AML5, 4 days, read-out: IC50, sh Cyclin K): 288 nM and 186 nM | IC50 ([7]; OCI-AML5, 4 days, read-out: IC50, sh ctrl): 713 nM and 664 nM | Class ([7]; class from shRNA IC50 profile and cyclin K-eGFP degradation): mixed 1-2 | potency upon CUL4A or CUL4B downregulation (for SNS-032, THZ531 also DDB1 depletion) ([8]; OCI-AML5, 4 days): impaired | Ratio shCUL4A/shCTRL ([8]; ratio of IC50 in shCUL4A vs shCTRL OCI-AML5 cells): 2.79
